From ChEMBL document CHEMBL1159316, “Bioactive saponins from Acacia tenuifolia from the suriname rainforest” (J Nat Prod, 2002)
Values after ≈ are worked out from the molar mass of the structure shown.

What was measured:
M109 = assay: Cytotoxicity against mouse M109 cells; format: functional, cell-based
Saccharomyces cerevisiae [1] = assay: Antifungal activity against Saccharomyces cerevisiae 1138; format: functional
Saccharomyces cerevisiae [2] = assay: Antifungal activity against Saccharomyces cerevisiae 1140; format: functional
Saccharomyces cerevisiae [3] = assay: Antifungal activity against Saccharomyces cerevisiae 1353; format: functional
Saccharomyces cerevisiae [4] = assay: Antifungal activity against Saccharomyces cerevisiae Sc7; format: functional
A2780 = assay: Cytotoxicity against human A2780 cells; format: functional, cell-based

SMILES	IC50 (M109)	IC12 (Saccharomyces cerevisiae [1])	IC12 (Saccharomyces cerevisiae [2])	IC12 (Saccharomyces cerevisiae [3])	IC12 (Saccharomyces cerevisiae [4])	IC50 (A2780)
CC(=O)N[C@H]1[C@H](O[C@H]2CC[C@]3(C)[C@H]4CC=C5[C@@H]6CC(C)(C)CC[C@]6(C(=O)O)CC[C@@]5(C)[C@]4(C)CC[C@H]3C2(C)C)O[C@H](CO[C@@H]2OC[C@H](O)[C@H](O)[C@H]2O[C@@H]2OC[C@H](O)[C@H](O)[C@H]2O)[C@@H](O)[C@@H]1O	1 µg/mL (≈ 1.08 µM)	25 µg/mL	40 µg/mL	30 µg/mL	45 µg/mL	–
CC(=O)N[C@H]1[C@H](O[C@H]2CC[C@]3(C)[C@H]4CC=C5[C@@H]6CC(C)(C)[C@@H](OC(=O)/C=C/c7ccccc7)C[C@]6(C(=O)O)[C@H](O)C[C@@]5(C)[C@]4(C)CC[C@H]3C2(C)C)O[C@H](CO[C@@H]2OC[C@H](O)[C@H](O)[C@H]2O[C@@H]2OC[C@@H](O)[C@H](O)[C@H]2O)[C@@H](O)[C@@H]1O [ACACIOSIDE B]	–	150 µg/mL	220 µg/mL	220 µg/mL	280 µg/mL	13.5 µg/mL (≈ 12.4 µM)
CC(=O)N[C@H]1[C@H](O[C@H]2CC[C@]3(C)[C@H]4CC=C5[C@@H]6CC(C)(C)[C@@H](OC(=O)/C=C/c7ccccc7)C[C@]6(C(=O)O)[C@H](O)C[C@@]5(C)[C@]4(C)CC[C@H]3C2(C)C)O[C@H](CO[C@@H]2OC[C@H](O)[C@H](O)[C@H]2O[C@@H]2OC[C@H](O)[C@H](O)[C@H]2O)[C@@H](O)[C@@H]1O [ACACIOSIDE C]	–	160 µg/mL	215 µg/mL	220 µg/mL	275 µg/mL	13 µg/mL (≈ 12 µM)
CC(=O)N[C@H]1[C@H](O[C@H]2CC[C@]3(C)[C@H]4CC=C5[C@@H]6CC(C)(C)CC[C@]6(C(=O)O)CC[C@@]5(C)[C@]4(C)CC[C@H]3C2(C)C)O[C@H](CO[C@@H]2OC[C@H](O)[C@H](O)[C@H]2O[C@@H]2OC[C@@H](O)[C@H](O)[C@H]2O)[C@@H](O)[C@@H]1O [ALBIZIATRIOSIDE A]	1 µg/mL (≈ 1.08 µM)	30 µg/mL	35 µg/mL	35 µg/mL	30 µg/mL	–
